Laboratory results taken from the NIST ThermoML archive (doi:10.1021/je400630f).
Values joined by “and” are separate entries in the source; they are usually repeats but may differ in a detail not shown here. Identical values can stand only once. Numbers after ± are expanded uncertainties.

Experiments:
[1] = 100 kPa, Liquid; for viscosity: Capillary tube (Ostwald / Ubbelohde) method
[2] = xn = mol fraction of the nth substance listed; conditions: 100 kPa, Liquid, x1 = 1; for viscosity: Capillary tube (Ostwald / Ubbelohde) method

CCCCO [butan-1-ol]
mass density ([1]; 283.15 K): 817.3 ± 1.2 kg/m3
viscosity ([1]; 283.15 K): 3.822 ± 0.079 mPa·s
mass density ([1]; 293.15 K): 809.6 ± 1.3 kg/m3
viscosity ([1]; 293.15 K): 2.859 ± 0.059 mPa·s
mass density ([1]; 298.15 K): 805.8 ± 1.3 kg/m3
viscosity ([1]; 298.15 K): 2.558 ± 0.053 mPa·s
mass density ([1]; 303.15 K): 802.1 ± 1.3 kg/m3
viscosity ([1]; 303.15 K): 2.236 ± 0.046 mPa·s
mass density ([1]; 313.15 K): 794.3 ± 1.3 kg/m3
viscosity ([1]; 313.15 K): 1.736 ± 0.036 mPa·s

CCCCCCCCCCO [decan-1-ol]
mass density ([1]; 283.15 K): 836.6 ± 1.2 kg/m3
viscosity ([1]; 283.15 K): 22.06 ± 0.45 mPa·s
mass density ([1]; 293.15 K): 829.9 ± 1.2 kg/m3
viscosity ([1]; 293.15 K): 14.5 ± 0.3 mPa·s
mass density ([1]; 298.15 K): 826.5 ± 1.2 kg/m3
viscosity ([1]; 298.15 K): 11.47 ± 0.24 mPa·s
mass density ([1]; 303.15 K): 823 ± 1.2 kg/m3
viscosity ([1]; 303.15 K): 9.61 ± 0.2 mPa·s
mass density ([1]; 313.15 K): 816.2 ± 1.3 kg/m3
viscosity ([1]; 313.15 K): 6.9 ± 0.14 mPa·s

CCO [ethanol]
mass density ([1]; 283.15 K): 798 ± 1.3 kg/m3
viscosity ([1]; 283.15 K): 1.475 ± 0.031 mPa·s
mass density ([1]; 293.15 K): 789.5 ± 1.4 kg/m3
viscosity ([1]; 293.15 K): 1.196 ± 0.025 mPa·s
mass density ([1]; 298.15 K): 785.2 ± 1.4 kg/m3
viscosity ([1]; 298.15 K): 1.102 ± 0.023 mPa·s
mass density ([1]; 303.15 K): 781.1 ± 1.4 kg/m3
viscosity ([1]; 303.15 K): 0.996 ± 0.021 mPa·s and 0.994 ± 0.021 mPa·s
mass density ([1]; 313.15 K): 772.3 ± 1.4 kg/m3
viscosity ([1]; 313.15 K): 0.842 ± 0.018 mPa·s

CCO [ethanol] + CCCCCCCCCCO
viscosity ([2]; 283.15 K): 1.475 ± 0.031 mPa·s
mass density ([2]; 283.15 K): 798 ± 1.3 kg/m3
viscosity ([2]; 293.15 K): 1.196 ± 0.025 mPa·s
mass density ([2]; 293.15 K): 789.5 ± 1.4 kg/m3
viscosity ([2]; 298.15 K): 1.102 ± 0.023 mPa·s
mass density ([2]; 298.15 K): 785.2 ± 1.4 kg/m3
viscosity ([2]; 303.15 K): 0.996 ± 0.021 mPa·s
mass density ([2]; 303.15 K): 781.1 ± 1.4 kg/m3
viscosity ([2]; 313.15 K): 0.842 ± 0.018 mPa·s
mass density ([2]; 313.15 K): 772.3 ± 1.4 kg/m3

CCO [ethanol] + CCCCCCCCCO
viscosity ([2]; 283.15 K): 1.475 ± 0.031 mPa·s
mass density ([2]; 283.15 K): 798 ± 1.3 kg/m3
viscosity ([2]; 293.15 K): 1.196 ± 0.025 mPa·s
mass density ([2]; 293.15 K): 789.5 ± 1.4 kg/m3
viscosity ([2]; 298.15 K): 1.102 ± 0.023 mPa·s
mass density ([2]; 298.15 K): 785.2 ± 1.4 kg/m3
viscosity ([2]; 303.15 K): 0.996 ± 0.021 mPa·s
mass density ([2]; 303.15 K): 781.1 ± 1.4 kg/m3
viscosity ([2]; 313.15 K): 0.842 ± 0.018 mPa·s
mass density ([2]; 313.15 K): 772.3 ± 1.4 kg/m3

CCO [ethanol] + CCCCCCCCO
viscosity ([2]; 283.15 K): 1.475 ± 0.031 mPa·s
mass density ([2]; 283.15 K): 798 ± 1.3 kg/m3
viscosity ([2]; 293.15 K): 1.196 ± 0.025 mPa·s
mass density ([2]; 293.15 K): 789.5 ± 1.4 kg/m3
viscosity ([2]; 298.15 K): 1.102 ± 0.023 mPa·s
mass density ([2]; 298.15 K): 785.2 ± 1.4 kg/m3
viscosity ([2]; 303.15 K): 0.994 ± 0.021 mPa·s
mass density ([2]; 303.15 K): 781.1 ± 1.4 kg/m3
viscosity ([2]; 313.15 K): 0.842 ± 0.018 mPa·s
mass density ([2]; 313.15 K): 772.3 ± 1.4 kg/m3

CCO [ethanol] + CCCCCCCO
viscosity ([2]; 283.15 K): 1.475 ± 0.031 mPa·s
mass density ([2]; 283.15 K): 798 ± 1.3 kg/m3
viscosity ([2]; 293.15 K): 1.196 ± 0.025 mPa·s
mass density ([2]; 293.15 K): 789.5 ± 1.4 kg/m3
viscosity ([2]; 298.15 K): 1.102 ± 0.023 mPa·s
mass density ([2]; 298.15 K): 785.2 ± 1.4 kg/m3
viscosity ([2]; 303.15 K): 0.996 ± 0.021 mPa·s
mass density ([2]; 303.15 K): 781.1 ± 1.4 kg/m3
viscosity ([2]; 313.15 K): 0.842 ± 0.018 mPa·s
mass density ([2]; 313.15 K): 772.3 ± 1.4 kg/m3

CCO [ethanol] + CCCCCO
viscosity ([2]; 283.15 K): 1.475 ± 0.031 mPa·s
mass density ([2]; 283.15 K): 798 ± 1.3 kg/m3
viscosity ([2]; 293.15 K): 1.196 ± 0.025 mPa·s
mass density ([2]; 293.15 K): 789.5 ± 1.4 kg/m3
viscosity ([2]; 298.15 K): 1.102 ± 0.023 mPa·s
mass density ([2]; 298.15 K): 785.2 ± 1.4 kg/m3
viscosity ([2]; 303.15 K): 0.996 ± 0.021 mPa·s
mass density ([2]; 303.15 K): 781.1 ± 1.4 kg/m3
viscosity ([2]; 313.15 K): 0.842 ± 0.018 mPa·s
mass density ([2]; 313.15 K): 772.3 ± 1.4 kg/m3

CCO [ethanol] + CCCCO
viscosity ([2]; 283.15 K): 1.475 ± 0.031 mPa·s
mass density ([2]; 283.15 K): 798 ± 1.3 kg/m3
viscosity ([2]; 293.15 K): 1.196 ± 0.025 mPa·s
mass density ([2]; 293.15 K): 789.5 ± 1.4 kg/m3
viscosity ([2]; 298.15 K): 1.102 ± 0.023 mPa·s
mass density ([2]; 298.15 K): 785.2 ± 1.4 kg/m3
viscosity ([2]; 303.15 K): 0.996 ± 0.021 mPa·s
mass density ([2]; 303.15 K): 781.1 ± 1.4 kg/m3
viscosity ([2]; 313.15 K): 0.842 ± 0.018 mPa·s
mass density ([2]; 313.15 K): 772.3 ± 1.4 kg/m3

CCCCCCCO [heptan-1-ol]
mass density ([1]; 283.15 K): 829.6 ± 1.3 kg/m3
viscosity ([1]; 283.15 K): 10.15 ± 0.21 mPa·s
mass density ([1]; 293.15 K): 822.6 ± 1.3 kg/m3
viscosity ([1]; 293.15 K): 7.026 ± 0.15 mPa·s
mass density ([1]; 298.15 K): 819.1 ± 1.3 kg/m3
viscosity ([1]; 298.15 K): 5.947 ± 0.12 mPa·s
mass density ([1]; 303.15 K): 815.6 ± 1.3 kg/m3
viscosity ([1]; 303.15 K): 5.041 ± 0.11 mPa·s
mass density ([1]; 313.15 K): 808.4 ± 1.4 kg/m3
viscosity ([1]; 313.15 K): 3.802 ± 0.08 mPa·s

CCCCCCCCCO [nonan-1-ol]
mass density ([1]; 283.15 K): 835 ± 1.3 kg/m3
viscosity ([1]; 283.15 K): 17.44 ± 0.36 mPa·s
mass density ([1]; 293.15 K): 828.1 ± 1.3 kg/m3
viscosity ([1]; 293.15 K): 11.63 ± 0.24 mPa·s
mass density ([1]; 298.15 K): 824.7 ± 1.3 kg/m3
viscosity ([1]; 298.15 K): 9.519 ± 0.2 mPa·s
mass density ([1]; 303.15 K): 821.3 ± 1.3 kg/m3
viscosity ([1]; 303.15 K): 7.806 ± 0.16 mPa·s
mass density ([1]; 313.15 K): 814.3 ± 1.4 kg/m3
viscosity ([1]; 313.15 K): 5.668 ± 0.12 mPa·s

CCCCCCCCO [octan-1-ol]
mass density ([1]; 283.15 K): 832.1 ± 1.2 kg/m3
viscosity ([1]; 283.15 K): 13.49 ± 0.28 mPa·s
mass density ([1]; 293.15 K): 825.2 ± 1.2 kg/m3
viscosity ([1]; 293.15 K): 9.016 ± 0.19 mPa·s
mass density ([1]; 298.15 K): 821.9 ± 1.2 kg/m3
viscosity ([1]; 298.15 K): 7.39 ± 0.15 mPa·s
mass density ([1]; 303.15 K): 818.4 ± 1.3 kg/m3
viscosity ([1]; 303.15 K): 6.306 ± 0.13 mPa·s
mass density ([1]; 313.15 K): 811.4 ± 1.3 kg/m3
viscosity ([1]; 313.15 K): 4.587 ± 0.095 mPa·s

CCCCCO [pentan-1-ol]
mass density ([1]; 283.15 K): 822.1 ± 1.3 kg/m3
viscosity ([1]; 283.15 K): 5.417 ± 0.11 mPa·s
mass density ([1]; 293.15 K): 814.7 ± 1.3 kg/m3
viscosity ([1]; 293.15 K): 3.974 ± 0.083 mPa·s
mass density ([1]; 298.15 K): 811.2 ± 1.3 kg/m3
viscosity ([1]; 298.15 K): 3.441 ± 0.072 mPa·s
mass density ([1]; 303.15 K): 807.5 ± 1.3 kg/m3
viscosity ([1]; 303.15 K): 2.99 ± 0.062 mPa·s
mass density ([1]; 313.15 K): 800 ± 1.4 kg/m3
viscosity ([1]; 313.15 K): 2.263 ± 0.047 mPa·s
